Data on 2 molecules can be found in ChEMBL document CHEMBL2157977, “The antitumor agent doxorubicin binds to Fanconi anemia group F protein” (Bioorg Med Chem, 2012).

Each structure is given as a SMILES string. Active and inactive are the calls of the source. No cut-off for these calls is given here.

For test [1], the target named is Fanconi anemia group D2 protein (Homo sapiens) (UniProt Q9BXW9). Nature of the test: Inhibition of CDDP-induced FANCD2 monoubiquitination in human HeLa cells at 9 uM after 18 hrs by Western blot analysis. The format is cell-based. In general terms: Immunoblotting shows a protein as a band on a membrane.
Chain of Fanconi anemia group D2 protein (Homo sapiens) (Q9BXW9 whole entry): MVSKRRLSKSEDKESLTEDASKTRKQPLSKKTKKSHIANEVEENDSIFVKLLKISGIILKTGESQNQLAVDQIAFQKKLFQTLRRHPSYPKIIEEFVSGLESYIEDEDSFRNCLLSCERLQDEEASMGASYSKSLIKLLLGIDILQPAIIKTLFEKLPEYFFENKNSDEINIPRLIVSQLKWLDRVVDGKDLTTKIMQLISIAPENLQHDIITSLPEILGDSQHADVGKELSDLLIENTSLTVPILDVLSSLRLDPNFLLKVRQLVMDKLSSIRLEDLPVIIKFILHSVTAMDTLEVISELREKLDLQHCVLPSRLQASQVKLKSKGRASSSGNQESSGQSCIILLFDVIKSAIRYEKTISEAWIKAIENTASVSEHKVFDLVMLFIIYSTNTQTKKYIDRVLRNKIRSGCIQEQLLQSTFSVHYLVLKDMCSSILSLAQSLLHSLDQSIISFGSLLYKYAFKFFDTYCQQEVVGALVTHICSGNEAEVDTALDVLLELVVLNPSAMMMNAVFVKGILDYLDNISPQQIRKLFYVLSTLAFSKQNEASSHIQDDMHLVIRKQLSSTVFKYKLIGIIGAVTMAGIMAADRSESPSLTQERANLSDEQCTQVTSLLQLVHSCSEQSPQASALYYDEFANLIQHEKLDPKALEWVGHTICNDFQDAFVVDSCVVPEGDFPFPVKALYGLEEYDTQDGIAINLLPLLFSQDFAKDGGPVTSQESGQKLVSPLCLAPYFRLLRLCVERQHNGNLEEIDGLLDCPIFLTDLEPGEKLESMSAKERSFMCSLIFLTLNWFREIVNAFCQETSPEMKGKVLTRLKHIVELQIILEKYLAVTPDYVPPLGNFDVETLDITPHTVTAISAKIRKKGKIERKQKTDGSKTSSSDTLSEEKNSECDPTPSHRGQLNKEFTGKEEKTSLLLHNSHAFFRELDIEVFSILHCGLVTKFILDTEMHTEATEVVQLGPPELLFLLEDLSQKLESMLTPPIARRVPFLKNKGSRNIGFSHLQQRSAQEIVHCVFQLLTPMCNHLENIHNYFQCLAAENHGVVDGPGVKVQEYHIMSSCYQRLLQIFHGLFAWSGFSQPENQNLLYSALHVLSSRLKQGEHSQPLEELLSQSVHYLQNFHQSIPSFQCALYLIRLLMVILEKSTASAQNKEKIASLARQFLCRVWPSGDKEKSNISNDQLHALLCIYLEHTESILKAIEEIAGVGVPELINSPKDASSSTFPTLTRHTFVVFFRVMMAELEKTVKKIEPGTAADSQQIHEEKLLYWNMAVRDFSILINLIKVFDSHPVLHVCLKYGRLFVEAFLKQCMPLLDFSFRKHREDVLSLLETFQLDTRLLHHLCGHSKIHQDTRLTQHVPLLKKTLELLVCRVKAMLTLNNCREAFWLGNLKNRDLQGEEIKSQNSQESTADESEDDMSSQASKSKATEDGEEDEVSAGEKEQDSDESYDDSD
Test [2] has as its target T1, Fanconi anemia group F protein (Homo sapiens) (UniProt Q9NPI8).
T1 sequence (whole entry): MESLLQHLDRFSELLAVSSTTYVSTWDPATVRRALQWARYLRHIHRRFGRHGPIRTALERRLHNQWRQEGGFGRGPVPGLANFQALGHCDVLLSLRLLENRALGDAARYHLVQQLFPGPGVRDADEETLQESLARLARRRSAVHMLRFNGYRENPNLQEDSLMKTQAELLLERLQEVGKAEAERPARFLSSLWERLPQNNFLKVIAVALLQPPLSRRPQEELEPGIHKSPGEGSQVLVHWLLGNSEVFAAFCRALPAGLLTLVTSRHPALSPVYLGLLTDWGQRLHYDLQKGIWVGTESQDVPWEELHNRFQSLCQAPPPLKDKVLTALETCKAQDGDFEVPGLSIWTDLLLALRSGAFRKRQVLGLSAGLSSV
Nature of the test: Binding affinity to human thymus flag-tagged full-length FANCF expressed in HEK293T cells after 10 mins by pull-down assay. The format is cell-based. Particulars: HEK-293T.

Consider `COc1cccc2c1C(=O)c1c(O)c3c(c(O)c1C2=O)C[C@@](O)(C(=O)CO)C[C@@H]3O[C@H]1C[C@H](N)[C@H](O)[C@H](C)O1`, for which, in test [1], the inhibition result was “Active”.
As to `COc1cccc2c1C(=O)c1c(O)c3c(c(O)c1C2=O)C[C@@](O)(C(=O)CO)C[C@@H]3O[C@H]1C[C@H](NC(=O)CCCCCNC(=O)CCCC[C@@H]2SC[C@@H]3NC(=O)N[C@@H]32)[C@H](O)[C@H](C)O1`, the outcome in test [2] was Active.
